Experimental data published in ChEMBL document CHEMBL5725201, “Cycloalkane derivatives” (2016).

Assay: Electrophysiological Assay: Current record was obtained by an automated patch clamp system IonWorks Quattro (Molecular Devices Corporation) in Population Patch Clamp mode. The operation was conducted in accordance with the operating procedure of the system. A Dulbecco's phosphate buffer containing calcium and magnesium (Sigma) was used as an extracellular fluid, and a low Cl-buffer (100 mM K-gluconate, 40 mM KCl, 3.2 mM MgCl2, 5 mM EGTA, 5 mM Hepes, pH 7.3) was used as an intracellular fluid. A test compound was dissolved in dimethylsulfoxide (DMSO) to prepare a 30 mM stock solution, so as to produce 4-fold serial dilutions with the extracellular fluid for attaining a DMSO concentration of 0.3% in measurement.The hNav 1.7/β1/β2 cells cultured to a 70-80% confluent state in a T150 flask (Sumilon) were washed with PBS and subsequently with versene (Invitrogen Corp.), and collected by allowing to react with 0.05% trypsin (Invitrogen Corp.) at 37° C. for 3 minutes. After washing with a culture medium, the resultant cells were suspended in an extracellular fluid at a concentration of […] so as to be used for the measurement. The cell membrane was perforated by using an intracellular fluid including 100 ug/ml amphotericin B (Sigma). Current response was obtained at a sampling frequency of 10 kHz. […]
Assay type: cell-based

IC50: 100 nM
Structure (SMILES): Cc1c(O[C@H]2CCCC[C@@H]2c2c[nH]nc2N)ccc(S(=O)(=O)Nc2ccncn2)c1F
